Reference: patent publication US11066409B2, “Bicyclic nitrogen-containing heterocyclic derivatives and pharmaceutical composition comprising the same” (Shionogi & Co., Ltd., priority 2016, dated 2021)

Target: human P2X7 receptor (Homo sapiens (Human), UniProt Q99572, R270H)
Assay: Evaluation of a human P2X7 receptor inhibitory activity (Yo-Pro uptake, BzATP stimulation, FLIPR TETRA)
Type: cell-based
Details: 1321N1 cells stably expressing human P2X7 receptor, Yo-Pro fluorescence
Procedure: Evaluation of a human P2X7 receptor inhibitory activity Stably expressing cell line (1321N1 cell transfected with the human P2X7 receptor gene (GenBank accession number NM_002562.5 including T606C and G952A SNP)) was used. The cells were seeded in a 384-well microtiter plate at a concentration of 8000 cells/well and cultured in the medium (10% fetal bovine serum, 25 mM HEPES, 1% penicillin and streptomycin in DMEM) for one day at 37° C. under 5% carbon dioxide atmosphere. After replacing with 20 μL of the HBSS buffer (20 mM HEPES, 55.6 mM D-glucose, 1× HBSS(−), pH7.4-7.5), 15 μL of 17.3 μM Yo-Pro solution in the HBSS buffer was added. The plate was placed in high-throughput cellular screening system FLIPR TETRA (Molecullar Devices, LLC.) and 15 μL of 130 μM BzATP solution in the HBSS buffer was added. Measurement of fluorescence intensity by FLIPR TETRA was started. After eight minutes, 15 μL of DMSO solutions containing different concentrations of the compound of the present invention as prepared by dilution with the HBSS buffer were dispensed to each well through the built-in automatic dispenser, and the measurement of fluorescence intensity was continued for 20 minutes. The maximum fluorescence intensity without the compound of the present invention is calculated as 0% inhibition and the maximum fluorescence intensity when the reference compound was added is calculated as 100% inhibition. Changing values of fluorescence intensity by the compound of the present invention were calculated by difference between maximum and minimum fluorescence intensity for 20 minutes. Inhibition ratios (%) were calculated from the following equation:
[formula] IC50 was calculated using logistic approximation.
As for IC50 value, value to below 10 nmol/L is represented as “A”, value from 10 nmol/L to below 100 nmol/L is represented as “B”, value from 100 nmol/L to below 500 nmol/L is represented as “C”, and value from 500 nmol/L to below 1 μmol/L is represented as “D”.

Chain of human P2X7 receptor (Q99572 whole entry R270H): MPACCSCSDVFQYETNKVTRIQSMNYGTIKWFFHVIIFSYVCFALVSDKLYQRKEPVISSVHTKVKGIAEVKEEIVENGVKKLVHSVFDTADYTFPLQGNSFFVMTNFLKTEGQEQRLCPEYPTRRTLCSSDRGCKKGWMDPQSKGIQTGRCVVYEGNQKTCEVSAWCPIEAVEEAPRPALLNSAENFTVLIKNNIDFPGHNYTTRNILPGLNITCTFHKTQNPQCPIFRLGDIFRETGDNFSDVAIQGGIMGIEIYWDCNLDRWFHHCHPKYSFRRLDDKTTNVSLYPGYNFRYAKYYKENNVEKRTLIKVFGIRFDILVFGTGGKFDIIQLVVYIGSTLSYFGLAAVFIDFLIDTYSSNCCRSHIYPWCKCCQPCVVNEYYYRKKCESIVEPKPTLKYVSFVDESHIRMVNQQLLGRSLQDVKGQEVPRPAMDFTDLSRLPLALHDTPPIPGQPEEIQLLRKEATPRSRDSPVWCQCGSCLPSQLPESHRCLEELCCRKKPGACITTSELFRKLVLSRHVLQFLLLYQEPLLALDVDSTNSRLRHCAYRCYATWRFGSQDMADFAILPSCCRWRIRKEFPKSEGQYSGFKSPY

| SMILES | IC50 |
| --- | --- |
| COc1cc(NC2=NC(=O)N(C)C3=NCC(c4ccc(F)cc4)N23)c(C)cc1F (centres unmarked) [Compound I-0150] | 18 nM |
| COc1c2n(c(Nc3cccc(Cl)c3C)nc1=O)C(c1ccccc1)CCO2 (centres unmarked) [Compound I-0009] | 22 nM |
| C=Cc1c2n(c(Nc3ccc(OC)nc3C)nc1=O)C(c1cc(F)cc(F)c1)CC2 (centres unmarked) [Compound I-0091] | 17 nM |
| Cc1c(Cl)cccc1Nc1nc(=O)cc2n1C(c1ccccc1)COC2 (single isomer, unassigned) [Compound I-0003] | 1.8 nM |
| CCc1nc(OC)ccc1Nc1nc(=O)cc2n1C(c1cc(F)cc(F)c1)CC2 (centres unmarked) [Compound I-0059] | 11 nM |
| O=c1cc2n(c(Nc3cccc4ncccc34)n1)C(c1ccccc1)CO2 (centres unmarked) [Compound I-0001] | 16 nM |

Same assay, conditions: 1321N1 cells stably expressing human P2X7 receptor, Yo-Pro fluorescence, class symbols

| SMILES | IC50 |
| --- | --- |
| CCc1cc(Nc2nc(=O)cc3n2C(c2ccccc2)CC3)c(C)cc1OC (centres unmarked) [Compound I-0039] | < 10 nM |
| CCN1C(=O)N=C(Nc2ccc(OC)nc2C)N2C1=NCC2c1ccc(F)cc1 (centres unmarked) [Compound I-0117] | 100 to 500 nM |
| Cc1nc2cc(C)c(Nc3nc(=O)cc4n3C(c3ccccc3)CN4C)cc2s1 (centres unmarked) [Compound I-0103] | 10 to 100 nM |
| Cc1ccc(OC(F)(F)CO)cc1NC1=NC(=O)N(C)C2=NCC(c3cc(F)c(F)c(F)c3)N12 (centres unmarked) [Compound I-0204] | 10 to 100 nM |
| Cc1cc(OC(F)F)c(C)cc1/N=c1\[nH]c(=O)cc2n1C(c1ccccc1)CC2 (centres unmarked) [Compound I-0065] | < 10 nM |
| COc1ccc(NC2=NC(=O)N(C)C3=NCC(c4ccc(F)c(F)c4)N23)c(C)n1 (centres unmarked) [Compound I-0127] | 10 to 100 nM |
| COc1ccc(Nc2nc(=O)cc3n2C(c2ccccc2)CC3)c(C)n1 (centres unmarked) [Compound I-0034] | 10 to 100 nM |
| COCCc1ccc(C)c(NC2=NC(=O)N(C)C3=NCC(c4cc(F)c(F)c(F)c4)N23)c1 (centres unmarked) [Compound I-0202] | 10 to 100 nM |
| COc1ccc(Nc2nc(=O)c(F)c3n2C(c2cc(F)cc(F)c2)CC3)c(C)c1F (centres unmarked) [Compound I-0108] | 10 to 100 nM |
| CCN1C(=O)N=C(Nc2cc(OC)ccc2C)N2C1=NCC2c1ccc(F)cc1 (centres unmarked) [Compound I-0139] | 10 to 100 nM |
| COc1nc(C)c(Nc2nc(=O)cc3n2C(c2ccccc2)CC3)cc1C (centres unmarked) [Compound I-0043] | < 10 nM |
| COc1cnc(C)c(/N=c2\[nH]c(=O)c(F)c3n2C(c2ccc(F)cc2)CC3)c1 (centres unmarked) [Compound I-0078] | 10 to 100 nM |
| COc1nc(C)c(Nc2nc(=O)c(F)c3n2C(c2cc(F)cc(F)c2)CC3)cc1C (centres unmarked) [Compound I-0136] | 10 to 100 nM |
| Cc1ccc(O[C@H]2C[C@H](CO)C2)cc1NC1=NC(=O)N(C)C2=NCC(c3cc(F)c(F)c(F)c3)N12 (some centres unmarked) [Compound I-0186] | 10 to 100 nM |
| COc1cnc(C)c(/N=c2\[nH]c(=O)cc3n2C(c2ccc(F)cc2)CC3)c1 (centres unmarked) [Compound I-0079] | 10 to 100 nM |
| COc1nc(C)c(NC2=NC(=O)N(C)C3=NCC(c4cc(F)c(F)c(F)c4)N23)cc1C (centres unmarked) [Compound I-0159] | 10 to 100 nM |
| Cc1cc(OC(F)F)ccc1/N=c1\[nH]c(=O)c(F)c2n1C(c1ccc(F)cc1F)CC2 (centres unmarked) [Compound I-0057] | 10 to 100 nM |
| Cc1ccc(CO)cc1NC1=NC(=O)N(C)C2=NCC(c3cc(F)nc(F)c3)N12 (centres unmarked) [Compound I-0195] | 10 to 100 nM |
| Cc1cc2cnn(CCO)c2cc1NC1=NC(=O)N(C)C2=NCC(c3cc(F)c(F)c(F)c3)N12 (centres unmarked) [Compound I-0187] | 10 to 100 nM |
| COc1c2n(c(Nc3cc4sc(C)nc4cc3C)nc1=O)C(c1ccc(F)cc1)CC2 (centres unmarked) [Compound I-0036] | 10 to 100 nM |
| COc1cc(NC2=NC(=O)N(C)C3=NCC(c4cc(F)c(F)c(F)c4)N23)c(C)cc1C#N (centres unmarked) [Compound I-0209] | 10 to 100 nM |

| SMILES | IC50 |
| --- | --- |
| COc1ccc(C)c(Nc2nc(=O)cc3n2C(c2ccccc2)CC3)c1 (centres unmarked) [Compound I-0016] | 10 to 100 nM |
| COc1cc(Nc2nc(=O)cc3n2C(c2ccccc2)CC3)c(C)cc1Cl (centres unmarked) [Compound I-0027] | < 10 nM |
| COc1ccc(Nc2nc(=O)cc3n2C(c2cc(F)cc(F)c2)CC3)c(C)c1 (centres unmarked) [Compound I-0038] | < 10 nM |
| COCC(F)(F)Oc1ccc(C)c(NC2=NC(=O)N(C)C3=NCC(c4cc(F)c(F)c(F)c4)N23)c1 (centres unmarked) [Compound I-0203] | 10 to 100 nM |
| COc1cc(C)c(NC2=NC(=O)N(C)C3=NCC(c4ccc(F)c(F)c4)N23)cc1OC (centres unmarked) [Compound I-0126] | 10 to 100 nM |
| CCOc1nc(C)c(Nc2nc(=O)c(F)c3n2C(c2ccc(F)cc2F)CC3)cc1F (centres unmarked) [Compound I-0083] | 10 to 100 nM |
| Cc1ccc(C#N)cc1NC1=NC(=O)N(C)C2=NCC(c3cc(F)cc(F)c3)N12 (centres unmarked) [Compound I-0146] | 10 to 100 nM |
| Cc1nc2cc(C)c(Nc3nc(=O)cc4n3[C@H](c3ccccc3)CC4)cc2s1 [Compound I-0029] | < 10 nM |
| COc1cc(NC2=NC(=O)N(C)C3=NCC(c4cc(F)cc(F)c4)N23)c(C)nc1OC (centres unmarked) [Compound I-0133] | 10 to 100 nM |
| COc1ccc(Nc2nc(=O)c(-c3ccccc3)c3n2C(c2cc(F)cc(F)c2)CC3)c(C)n1 (centres unmarked) [Compound I-0089] | 10 to 100 nM |
| Cc1cc(C#N)ccc1NC1=NC(=O)N(C)C2=NCC(c3cc(F)c(F)c(F)c3)N12 (centres unmarked) [Compound I-0208] | 10 to 100 nM |
| COc1ccc(Nc2nc(=O)c(Br)c3n2C(c2cc(F)cc(F)c2)CC3)c(C)n1 (centres unmarked) [Compound I-0086] | 10 to 100 nM |
| COc1ccc(/N=c2\[nH]c(=O)cc3n2C(c2ccc(F)cc2)CC3)c(C)n1 (centres unmarked) [Compound I-0070] | 10 to 100 nM |
| COc1ccc(C)c(NC2=NC(=O)N(C)C3=NCC(c4ccc(F)c(F)c4)N23)c1 (centres unmarked) [Compound I-0124] | 10 to 100 nM |
| Cc1ccc(OC[C@H]2C[C@H](O)C2)cc1NC1=NC(=O)N(C)C2=NCC(c3cc(F)c(F)c(F)c3)N12 (some centres unmarked) [Compound I-0190] | 10 to 100 nM |
| COc1ccc(Nc2nc(=O)c(F)c3n2C(c2cc(F)c(F)c(F)c2)CN3)c(C)n1 (centres unmarked) [Compound I-0163] | 10 to 100 nM |
| COc1cc(C)c(Nc2nc(=O)n(C)c3ncn(Cc4ccccc4)c23)cc1OC [Compound I-0170] | 10 to 100 nM |
| Cc1ccc(CO)cc1NC1=NC(=O)N(C)C2=NCC(Cc3ccccc3)N12 (centres unmarked) [Compound I-0179] | 100 to 500 nM |
| COc1cc(Nc2nc(=O)c(OC)c3n2C(c2ccccc2)CC3)c(C)cc1F (centres unmarked) [Compound I-0045] | 10 to 100 nM |
| Cc1c(Cl)cccc1Nc1nc(=O)cc2n1C(c1ccccc1)CCC2 (centres unmarked) [Compound I-0005] | 10 to 100 nM |
| Cc1nc2cc(C)c(Nc3nc(=O)c(F)c4n3C(c3cc(F)cc(F)c3)CC4)cc2s1 (centres unmarked) [Compound I-0101] | 10 to 100 nM |

| SMILES | IC50 |
| --- | --- |
| CCN1C(=O)N=C(Nc2ccc(C)nc2C)N2C1=NCC2c1ccc(F)cc1 (centres unmarked) [Compound I-0112] | 500 to 1000 nM |
| COc1cc(Nc2nc(=O)cc3n2C(c2ccccc2)CC3)c(C)cn1 (centres unmarked) [Compound I-0035] | 100 to 500 nM |
| COc1nc(C)c(Nc2nc(=O)cc3n2C(c2ccc(F)cc2F)CC3)cc1F (centres unmarked) [Compound I-0084] | 10 to 100 nM |
| CCc1c2n(c(Nc3ccc(OC)nc3C)nc1=O)C(c1cc(F)cc(F)c1)CC2 (centres unmarked) [Compound I-0092] | 10 to 100 nM |
| COc1ccc(Nc2nc(=O)cc3n2C(c2ccccc2)CC3)c(C)c1 (centres unmarked) [Compound I-0014] | < 10 nM |
| CCc1nc(OC)ccc1Nc1nc(=O)cc2n1C(c1cc(F)cc(F)c1)CC2 (centres unmarked) [Compound I-0059] | 10 to 100 nM |
| Cc1ccc(C#N)cc1NC1=NC(=O)N(CCO)C2=NCC(c3cc(F)c(F)c(F)c3)N12 (centres unmarked) [Compound I-0189] | 10 to 100 nM |
| COc1cc(Nc2nc(=O)cc3n2C(c2ccccc2)CC3)c(C)cc1F (centres unmarked) [Compound I-0022] | < 10 nM |
| CCOc1ccc(NC2=NC(=O)N(C)C3=NCC(c4cc(F)c(F)c(F)c4)N23)c(CC)n1 (centres unmarked) [Compound I-0165] | 10 to 100 nM |
| COc1nc(C)c(Nc2nc(=O)cc3n2C(c2cc(F)cc(F)c2)CC3)cc1C (centres unmarked) [Compound I-0051] | 10 to 100 nM |
| CN1C(=O)N=C(Nc2cc(C#N)ccc2F)N2C1=NCC2c1cc(F)c(F)c(F)c1 (centres unmarked) [Compound I-0210] | 10 to 100 nM |
| COc1ccc(Nc2nc(=O)c(Cl)c3n2C(c2cc(F)cc(F)c2)CC3)c(C)n1 (centres unmarked) [Compound I-0085] | 10 to 100 nM |
| CN1C(=O)N=C(Nc2cc(C3CC3)nn2C)N2C1=NCC2c1ccc(F)cc1 (centres unmarked) [Compound I-0113] | 500 to 1000 nM |
| COc1cc(Nc2nc(=O)cc3n2C(c2cc(F)cc(F)c2)CN3)c(C)cc1F (centres unmarked) [Compound I-0128] | 10 to 100 nM |
| COc1nc(C)c(Nc2nc(=O)cc3n2C(c2cc(F)cc(F)c2)CC3)cc1F (centres unmarked) [Compound I-0072] | 10 to 100 nM |
| COc1cc(NC2=NC(=O)N(C)C3=NCC(c4cc(F)cc(F)c4)N23)c(C)cc1F (centres unmarked) [Compound I-0148] | 10 to 100 nM |
| COc1cc(Nc2nc(=O)cc3n2C(c2cc(F)cc(F)c2)CN3)c(C)cc1F (centres unmarked) [Compound I-0134] | < 10 nM |
| COc1cc(C)c(Nc2nc(=O)cc3n2C(c2ccccc2)CC3)cc1F (centres unmarked) [Compound I-0024] | 10 to 100 nM |
| COc1ccc(NC2=NC(=O)N(C)C3=NCC(c4cc(F)cc(F)c4)N23)c(C)c1F (centres unmarked) [Compound I-0137] | 10 to 100 nM |
| Cc1ccc(Oc2ccccn2)cc1NC1=NC(=O)N(C)C2=NCC(c3cc(F)c(F)c(F)c3)N12 (centres unmarked) [Compound I-0193] | 10 to 100 nM |
